A word on the Kd: it is the free concentration of one partner at which half of the binding sites on the other are occupied at equilibrium, for simple one-to-one binding.

Some results are limits rather than exact numbers.

We go through 1 compound from paper PMC9585585, “Discovery of Small-Molecule Allosteric Inhibitors of PfATC as Antimalarials” (Journal of the American Chemical Society, 2022).

The target in one data set is PfATC (Plasmodium falciparum, UniProt A0A5K1K910). Briefly: Microscale thermophoresis (MST). The format is binding. As to conditions: n = 3. The text has this: (§1) 464Data collection, processing and refinement. All the diffraction data sets were collected using
(§2) 465synchrotron radiation wavelength 1.033200 Å at DESY beamline P11. The data collected for
(§3) 466PfATC crystals grown in presence of fragments and compounds were processed using XDSAPP 25
(§4) 467and Aimless 26, and the structures were solved and initially refined using the DIMPLE pipeline
(§5) 468within CCP4 suite 26 with coordinates of the unliganded PfATC (5ILQ) as a starting model. The
469final refinement included manual rebuilding in coot 27 and Refmac5 28. The resulting crystal
470structures were deposited in PDB 29. Data collection and processing statistics are show in Table
472Differential Scanning Fluorimetry (DSF). The purified PfATC was incubate with 5000 × Sypro
473Orange (Invitrogen) and dilution it to 1:400 stock of dye in assay buffer (50 mM Tris-HCl pH =8.0
474and 300 mM NaCl). Each reaction consisted of 2 µL compound (10 mM stock in 100% DMSO), 5
475µL PfATC-Sypro orange mixture and 43 µL assay buffer. Final protein assay concentration was
4765µM, final DMSO concentration war […]. After incubation for 20 min at 20 ℃, the samples
477were hated from 25℃ to 95℃ at a rate of 0.5 ℃ min -1. The inflection points of the melting curves
478were determined using BioRad CSV 96 control software and processed & plotted by GraphPad.
479Microscale Thermophoresis (MST). […]
Background: In MST a laser heats a spot of the sample, and binding alters the fluorescence response.

Data set [1] can be described thus: Insolubility interpreted from deviation of the MST curve. The format is physicochemical. As to conditions: pH 8, aqueous with cosolvent or surfactant or cyclodextrin, kinetic from dmso stock, MST buffer, read-out: concentration in excess of which the compound is insoluble. As for the experimental part: We also modified the amino group and generated a new scaffold, suspecting that varying the R1, R2, and R3 groups would generate a series of compounds with optimized binding and improved inhibition (BDAs, Supporting Information Table 1). We evaluated the BDA series in an in vitro activity assay against malarial and human ATC (Figure 3A, Supporting Information Table 1). […] Significant deviations from the sigmoidal distribution of the MST curve are present at concentrations higher than 10 μM, which we have interpreted as indicative of BDA-04 insolubility at concentration in excess of 10 μM. To characterize the mechanism of inhibition by BDAs, enzyme activity assays were performed using BDA-04 as an exemplar (Figure 3F,G).
as §1, §2, §3, §4, §5
469final refinement included manual rebuilding in coot 27 and Refmac5 28. The resulting crystal […]
478were determined using BioRad CSV 96 control software and processed & plotted by GraphPad. […]

PfATC, sequence (A0A5K1K910 entry or part of it): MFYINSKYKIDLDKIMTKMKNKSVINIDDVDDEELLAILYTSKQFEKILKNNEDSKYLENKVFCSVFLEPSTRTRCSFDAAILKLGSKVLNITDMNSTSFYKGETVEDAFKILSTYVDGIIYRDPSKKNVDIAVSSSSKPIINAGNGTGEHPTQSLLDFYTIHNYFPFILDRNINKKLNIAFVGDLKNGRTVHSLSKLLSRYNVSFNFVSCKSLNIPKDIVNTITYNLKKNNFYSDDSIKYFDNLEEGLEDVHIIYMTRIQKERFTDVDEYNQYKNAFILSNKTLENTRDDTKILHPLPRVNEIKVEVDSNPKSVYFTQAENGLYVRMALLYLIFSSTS

On PfATC, `CC(C)(C)OC(=O)Nc1sc(-c2ccccc2)cc1C(=O)NCCc1ccccc1` [BDA-04] came in with a Kd of 66.3 nM. Moreover, in data set [1], the solubility at 10 min was more than 10 µM.
